Source: patent US20260083701A1, “COMPOSITIONS, FORMULATIONS, AND METHODS FOR TREATMENT OF INFLAMMATORY CONDITIONS” (Oddity Labs, LLC, priority 2023, published 2026)

Legend:
IL-13 = assay: Functional Th2-blocking activity: IL-13 expression in primary human Th2 cells (intracellular flow cytometry); format: cell-based; settings: for Expression of Cytokine following Stimulation (% X Positive among CD4+ T cells) IL-13: 3 days co-culture with compound, PMA/ionomycin stimulation 6 hours; for % Normalized Reduction of Cytokine Expression From Baseline in CD4+ T Cells IL-13: normalized against vehicle control (water), 3 days co-culture, PMA/ionomycin 6 hours
Excerpt: (§1) To produce T helper 2 (Th2) cells, peripheral blood mononuclear cells (PBMCs) were harvested from healthy donor leukopaks using Ficoll gradients. Naive CD4+ T cells were further isolated, then activated using TransAct or Dynabeads (depending on the donor). CD4+ T cells were activated for two days in the presence of low dose IL-2 (30 IU/mL) in X-VIVO-15 media containing 5% human AB serum (activation cycle). On the second day, the media was exchanged and supplemented with interleukin 4 (IL-4) (20 ng/mL), anti-IFN-gamma antibody (1 μg/mL), and interleukin 2 (IL-2) (rest cycle). The cells were cultured for an additional five days then evaluated for Prostaglandin D2 receptor 2 (DP2 or CRTH2) expression and IL-4 and interleukin 13 (IL-13) expression following phorbol myristate acetate (PMA)/ionomycin stimulation. If the expression of CRTH2 was >50%, the cells were frozen and used in Th2 IL-4/IL-13 bioactivity assays. If the expression of CRTH2 <50%, then the cells were restimulated using TransAct (or Dynabeads) and maintained on similar cycles of activation (2 days) and rest (5 days), until the expression of CRTH2 exceeded 50%. Typically, no more than 4 cycles are needed before the Th2 cells may be harvested and frozen.
(§2) For testing the ability of a compound or salt of the present disclosure to reduce the expression of IL-4 and IL-13 was tested in primary human Th2 cells, the abovementioned cells were thawed, then cultured for one day in IL-2 containing media. The Th2 cells were treated with compounds added at varying concentrations for three days, after which, the cells were washed, and stimulated with PMA/ionomycin for 6 hrs prior to readabout via intracellular flow cytometry.
(§3) The ability of a compound or salt of the present disclosure to reduce the expression of IL-4 and IL-13 was tested in primary human Th2 cells. Naive, primary human CD4+ T cells were isolated from healthy donors and differentiated into Th2 cells using a combination of IL-4 cytokine and anti-IFN-gamma antibody, based on a modified protocol from Scott et al (Activation of Th2 cells downregulates CRTh2 through an NFAT1 mediated mechanism. PLoS One. 2018 Jul. 3; 13(7):e0199156). Th2 cells were CRTH2+ and expressed IL-4 and IL-13 following PMA/ionomycin stimulation. Prior to PMA/ionomycin stimulation, Th2 cells were co-cultured with a compound or salt of the present disclosure for 3 days and then stimulated for 6 hours. Intracellular flow cytometry was performed to investigate the expression of IL-4 and IL-13 among stimulated CD4+ Th2 cells. The compound or salt was evaluated across a 2-log concentration range. Th2 cells were cultured in X-VIVO-15 media with human AB serum and supplemented with low dose IL-2 (30 IU/mL). The antibody panel that was used is listed below. All antibodies were obtained from Biolegend.
(§4) Description of Calculation for: (1) Expression of Cytokine following Stimulation (% X Positive among CD4+ T cells), and (2) % Normalized Reduction of Cytokine Expression From Baseline in CD4+ T Cells
(§5) The expression of IL-4 and IL-13 was measured based on positive gated fractions among CD4+ Th2 cells. The number is expressed as a positive percentage, determined based on the fluorescence-minus-one (FMO) control. The max percent is 100%. The normalized reduction value uses the vehicle control (water) to normalize against using the following percent change formula. (Cmpd: compound)

IL-4 = assay: Functional Th2-blocking activity: IL-4 expression in primary human Th2 cells (intracellular flow cytometry); format: cell-based; settings: primary human CD4+ Th2 cells; for % Normalized Reduction of Cytokine Expression From Baseline in CD4+ T Cells IL-4: normalized against vehicle control (water), 3 days co-culture, PMA/ionomycin 6 hours; for Expression of Cytokine following Stimulation (% X Positive among CD4+ T cells) IL-4: 3 days co-culture with compound, PMA/ionomycin stimulation 6 hours
Excerpt: as §1, §2, §3, §4, §5

SMILES	Expression of Cytokine following Stimulation (% X Positive among CD4+ T cells) IL-13 (IL-13)	% Normalized Reduction of Cytokine Expression From Baseline in CD4+ T Cells IL-13 (IL-13)	% Normalized Reduction of Cytokine Expression From Baseline in CD4+ T Cells IL-4 (IL-4)	Expression of Cytokine following Stimulation (% X Positive among CD4+ T cells) IL-4 (IL-4)
O=C(C1CCc2cn[nH]c2C1)N1C[C@H]2CCC[C@@]2(c2nc(-c3ccccc3)no2)C1 (stereo in doubt) [IV-1, 6-[(3aS,6aS)-3a-(3-phenyl-1,2,4-oxadiazol-5-yl)-octahydrocyclopenta[c]pyrrole-2-carbonyl]-4,5,6,7-tetrahydro-1H-indazole]	C (C represents 14% to less than 18%)	C (C represents 40% to less than 50%)	C (C represents 20% to less than 25%)	B (B represents 30% to less than 35%)
O=C1CCC(N2Cc3c(OCC(=O)N4CCCC(c5ccccn5)C4)cccc3C2=O)C(=O)N1 (stereo not shown) [Compound V-2, 3-(1-oxo-4-{2-oxo-2-[3-(pyridin-2-yl)piperidin-1-yl]ethoxy}-2,3-dihydro-1H-isoindol-2-yl)piperidine-2,6-dione]	B (B represents 10% to less than 14%)	D (D represents 50% or greater)	D (D represents 25% or greater)	A (A represents 0% to less than 30%)
O=C(Nc1cccc(-c2ccc3nnc(-c4ccncc4)n3n2)c1)c1ccc(Cl)nc1 [III-2, 6-chloro-N-{3-[3-(pyridin-4-yl)-[1,2,4]triazolo[4,3-b]pyridazin-6-yl]phenyl}pyridine-3-carboxamide]	C (C represents 14% to less than 18%)	C (C represents 40% to less than 50%)	C (C represents 20% to less than 25%)	B (B represents 30% to less than 35%)
CCNC(=O)COc1cccc(NC(=O)c2sccc2-n2c(C)ccc2C)c1 [III-3, 3-(2,5-dimethyl-1H-pyrrol-1-yl)-N-{3-[(ethylcarbamoyl)methoxy]phenyl} thiophene-2-carboxamide]	B (B represents 10% to less than 14%)	D (D represents 50% or greater)	B (B represents 15% to less than 20%)	B (B represents 30% to less than 35%)
Cc1cc(NC(=O)CC23CC4CC(CC(C4)C2)C3)cc(-c2nc3ncccc3o2)c1O [III-4, 2-(1-adamantyl)-N-(4-hydroxy-3-methy1-5-[1,3]oxazolo[4,5-b]pyridin-2-ylphenyl)acetamide]	C (C represents 14% to less than 18%)	B (B represents 30% to less than 40%)	C (C represents 20% to less than 25%)	B (B represents 30% to less than 35%)
O=C(Cc1c[nH]c2ccccc12)Nc1cccc(-c2ccc3nnc(-c4cccnc4)n3n2)c1 [III-5, 2-(1H-indol-3-yl)-N-{3-[3-(pyridin-3-yl)-[1,2,4]triazolo[4,3-b]pyridazin-6-yl]phenyl}acetamide]	B (B represents 10% to less than 14%)	D (D represents 50% or greater)	A (A represents 0% to less than 15%)	C (C represents 35% to less than 40%)
O=C(Cc1ncc(C(F)(F)F)cc1Cl)Nc1ccc(N2CCOCC2)cc1 [III-6, 2-[3-chloro-5-(trifluoromethyl)pyridin-2-yl]-N-[4-(morpholin-4-yl)phenyl]acetamide]	C (C represents 14% to less than 18%)	B (B represents 30% to less than 40%)	B (B represents 15% to less than 20%)	B (B represents 30% to less than 35%)
O=C(Nc1cccc(NC(=O)c2ccc3[nH]c4c(c3c2)CCCC4)c1)c1ccccc1 [III-7, N-(3-benzamidophenyl)-2,3,4,9-tetrahydro-1H-carbazole-6-carboxamide]	B (B represents 10% to less than 14%)	D (D represents 50% or greater)	D (D represents 25% or greater)	A (A represents 0% to less than 30%)
Cc1nnc(-c2cccc(-c3noc(-c4c[nH]c(=O)c5ccccc45)n3)c2)[nH]1 [IV-2, 4-{3-[3-(5-methyl-4H-1,2,4-triazol-3-yl)phenyl]-1,2,4-oxadiazol-5-yl}-1,2-dihydroisoquinolin-1-one]	B (B represents 10% to less than 14%)	D (D represents 50% or greater)	D (D represents 25% or greater)	B (B represents 30% to less than 35%)
O=c1c2ccccc2c(-c2nc(-c3ccccc3Cl)no2)nn1-c1ccccc1 [IV-3, 4-[3-(2-chlorophenyl)-1,2,4-oxadiazol-5-yl]-2-phenyl-1,2-dihydrophthalazin-1-one]	C (C represents 14% to less than 18%)	B (B represents 30% to less than 40%)	C (C represents 20% to less than 25%)	B (B represents 30% to less than 35%)
O=C(NC1CCN(C(=O)c2cn(-c3ccc(F)cc3)nn2)CC1)c1cc2ccccc2[nH]1 [VI-1, N-{1-[1-(4-fluorophenyl)-1H-1,2,3-triazole-4-carbonyl]piperidin-4-yl}-1H-indole-2-carboxamide]	C (C represents 14% to less than 18%)	B (B represents 30% to less than 40%)	D (D represents 25% or greater)	B (B represents 30% to less than 35%)
O=C(NCCn1ccc2ccccc21)NC1CC(=O)N(c2cccc(F)c2)C1 (stereo not shown) [VI-2, 3-[1-(3-fluorophenyl)-5-oxopyrrolidin-3-y1]-1-[2-(1H-indol-1-yl)ethyl]urea]	D (D represents 18% or greater)	A (A represents 0% to less than 30%)	D (D represents 25% or greater)	B (B represents 30% to less than 35%)
COC(=O)c1sccc1-n1c(C)ccc1C [VI-3, methyl 3-(2,5-dimethyl-1H-pyrrol-1-yl)thiophene-2-carboxylate]	C (C represents 14% to less than 18%)	C (C represents 40% to less than 50%)	B (B represents 15% to less than 20%)	B (B represents 30% to less than 35%)
